Data on 15 compounds can be found in patent US20240360178A1, “MACROCYCLIC IMMUNOMODULATORS” (Bristol-Myers Squibb Company, priority 2021, published 2024).

The assay deals with T1, human PD-1 (Jurkat-PD-1 cells) / PE-labeled human PD-L1-Ig (Homo sapiens, UniProt Q15116).
T1 construct: expressed in transfected cells; host or cells: Jurkat cell line over-expressing human PD-1
The assay is described as follows: Jurkat-PD-1 Cell Binding High-Content Screening Assay (CBA); Jurkat hPD1-PDL1 assay. The note with it: Jurkat cell line over-expressing human PD-1; PE-labeled PD-L1-Ig 20 nM final; compound incubated 2 hours at 37° C.; read-out: Jurkat HPD1-PDL1 IC50. As for the experimental part: The ability of the compounds of formula (I) to bind to PD-1 was investigated using a Jurkat-PD-1 Cell Binding High-Content Screening Assay.
Jurkat-PD-1 Cell Binding High-Content Screening Assay (CBA)
Phycoerythrin (PE) was covalently linked to the Ig epitope tag of human PD-L1-Ig and fluorescently-labeled PD-L1-Ig was used for binding studies with a Jurkat cell line over-expressing human PD-1 (Jurkat-PD-1). Briefly, 8×10^3 Jurkat-hPD-1 cells were seeded into 384 well plates in 20 μL of DMEM supplemented with 10% fetal calf serum. 100 nL of compound was added to cells followed by incubation at 37° C. for 2 hours. Then, 5 μL of PE-labeled PD-L1-Ig (20 nM final), diluted in DMEM supplemented with 10% fetal calf serum. […] Data was collected and processed using a Cell Insight NXT High Content Imager and associated software.

Starred links: 1 amine or outer side, 2 acyl side, 3 side chain; linkers in the order of their positions; H or OH if unused. Positions of bridges follow the written chain, without caps; N, C: chain ends. Non-standard residues stand in square brackets, D forms with d. Residues, ends and D or L forms follow the SMILES beside them. ξ: configuration not given here. *: point of attachment. Phe(4-COOH) = N[C@@H](Cc1ccc(C(=O)O)cc1)C(=O)O; Bip = N[C@@H](Cc1ccc(-c2ccccc2)cc1)C(=O)O; Phe(3-OMe) = COc1cccc(C[C@H](N)C(=O)O)c1; X1 = O=C([C@H](Cc1ccn[nH]1)N[*:1])[*:2]; NMeY = CN[C@@H](Cc1ccc(O)cc1)C(=O)O; NMeF = CN[C@@H](Cc1ccccc1)C(=O)O; 4Pal = N[C@@H](Cc1ccncc1)C(=O)O; dHyp = O=C(O)[C@H]1C[C@H](O)CN1; Carboxymethyl = O=C(O)C*; NMeA = CN[C@@H](C)C(=O)O; Dab = NCC[C@H](N)C(=O)O; Dap = NC[C@H](N)C(=O)O; Aib = CC(C)(N)C(=O)O; ξP = O=C(O)C1CCCN1; Sar = CNCC(=O)O

T1 sequence (Q15116 25-288): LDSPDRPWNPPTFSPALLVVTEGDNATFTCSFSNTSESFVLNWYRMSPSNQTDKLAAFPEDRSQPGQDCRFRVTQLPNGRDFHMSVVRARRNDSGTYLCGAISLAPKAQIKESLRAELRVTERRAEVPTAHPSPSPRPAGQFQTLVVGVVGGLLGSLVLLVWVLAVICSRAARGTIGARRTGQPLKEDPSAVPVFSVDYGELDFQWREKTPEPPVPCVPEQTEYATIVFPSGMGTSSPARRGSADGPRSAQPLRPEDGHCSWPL

`CC(C)C[C@@H]1NC(=O)[C@H](Cc2c[nH]c3ccccc23)NC(=O)[C@H](CC(=O)O)NC(=O)[C@H](Cc2ccc(C(=O)O)cc2)NC(=O)[C@H](Cc2ccccc2)NC(=O)CSC[C@@H](C(=O)N[C@@H](C)C(N)=O)NC(=O)[C@H](CO)NC(=O)[C@H](C(C)C)NC(=O)[C@H](CC(C)C)NC(=O)[C@H](CC(N)=O)NC(=O)CN(C)C(=O)[C@H](C)N(C)C(=O)[C@H](C(C)C)NC(=O)[C@H](Cc2ccc(-c3ccccc3)cc2)NC1=O` [Example 1066] ({CH2CO}-F[Phe(4-COOH)]DWL[Bip]V[NMeA][Sar]NLVSCA-NH2; thioether N-14): the IC50 stood at 160 nM.

For `CC(C)C[C@@H]1NC(=O)[C@H](CC(N)=O)NC(=O)CN(C)C(=O)[C@H](C)N(C)C(=O)[C@H](C(C)C)NC(=O)[C@H](Cc2ccc(-c3ccccc3)cc2)NC(=O)[C@H](CC(C)C)NC(=O)[C@H](Cc2c[nH]c3ccccc23)NC(=O)[C@H](CC(=O)O)NC(=O)[C@H](Cc2ccc(O)cc2)NC(=O)[C@H](Cc2ccccc2)NC(=O)CSC[C@@H](C(=O)NCC(N)=O)NC(=O)[C@H](CO)NC(=O)[C@H](CCCCN)NC1=O` [Example 1104] ({CH2CO}-FYDWL[Bip]V[NMeA][Sar]NLKSCG-NH2; thioether N-14), the IC50 is 320 nM.

In the case of `CC(C)C[C@@H]1NC(=O)[C@H](Cc2c[nH]c3ccccc23)NC(=O)[C@H](CC(=O)O)NC(=O)[C@H](Cc2ccc(O)cc2)NC(=O)[C@H](Cc2ccn[nH]2)NC(=O)CSC[C@@H](C(=O)N[C@@H](C)C(N)=O)NC(=O)[C@H](CO)NC(=O)[C@H](C(C)C)NC(=O)[C@H](CC(C)C)NC(=O)[C@H](CC(N)=O)NC(=O)CN(C)C(=O)[C@H](C)N(C)C(=O)[C@H](C(C)C)NC(=O)[C@H](Cc2ccc(-c3ccccc3)cc2)NC1=O` [Example 1094] ({CH2CO}-[X1]YDWL[Bip]V[NMeA][Sar]NLVSCA-NH2; thioether N-14), the concentration for half-maximal inhibition (IC50) turned out to be 280 nM.

As to `CC(C)C[C@@H]1NC(=O)[C@H](CCCNC(=N)N)NC(=O)[C@H](Cc2ccccc2)N(C)C(=O)[C@H](C)N(C)C(=O)[C@H](CCCNC(=N)N)NC(=O)[C@H](Cc2ccc(-c3ccccc3)cc2)NC(=O)[C@H](C(C)C)NC(=O)[C@H](Cc2c[nH]c3ccccc23)NC(=O)[C@H](CC(=O)O)NC(=O)[C@H](Cc2ccc(O)cc2)NC(=O)[C@H](Cc2ccccc2)NC(=O)CSC[C@@H](C(=O)NC(C)(C)C(N)=O)NC(=O)[C@H](CO)NC(=O)[C@H](C(C)C)NC1=O` [Example 1328] ({CH2CO}-FYDWV[Bip]R[NMeA][NMeF]RLVSC[Aib]-NH2; thioether N-14), the concentration for half-maximal inhibition (IC50) worked out at 480 nM.

For `CC(C)C[C@@H]1NC(=O)[C@H](Cc2c[nH]c3ccccc23)NC(=O)[C@H](CC(=O)O)NC(=O)[C@H](Cc2ccc(O)cc2)NC(=O)[C@H](Cc2ccccc2)NC(=O)CSC[C@@H](C(=O)N[C@@H](C)C(N)=O)NC(=O)[C@H](CO)NC(=O)[C@H](C(C)C)NC(=O)[C@H](CC(C)C)NC(=O)[C@H](CC(N)=O)NC(=O)[C@H]2C[C@H](O)CN2C(=O)[C@H](C)N(C)C(=O)[C@H](C(C)C)NC(=O)[C@H](Cc2ccc(-c3ccccc3)cc2)NC1=O` [Example 1054] ({CH2CO}-FYDWL[Bip]V[NMeA][dHyp]NLVSCA-NH2; thioether N-14), the IC50 is 120 nM.

With `CC(C)C[C@@H]1NC(=O)[C@H](Cc2c[nH]c3ccccc23)NC(=O)[C@H](CC(=O)O)NC(=O)[C@H](Cc2ccc(O)cc2)NC(=O)[C@H](Cc2ccccc2)NC(=O)CSC[C@@H](C(=O)NCC(N)=O)NC(=O)[C@H](CO)NC(=O)[C@H](C(C)C)NC(=O)[C@H](CC(C)C)NC(=O)[C@H](CCN)NC(=O)CN(C)C(=O)[C@H](C)N(C)C(=O)[C@H](C(C)C)NC(=O)[C@H](Cc2ccc(-c3ccccc3)cc2)NC1=O` [Example 1069] ({CH2CO}-FYDWL[Bip]V[NMeA][Sar][Dab]LVSCG-NH2; thioether N-14), the concentration for half-maximal inhibition (IC50) was 160 nM.

With `CC(C)C[C@@H]1NC(=O)[C@H](CCCNC(=N)N)NC(=O)C2CCCN2C(=O)[C@H](C)N(C)C(=O)[C@H](CCCNC(=N)N)NC(=O)[C@H](Cc2ccc(-c3ccccc3)cc2)NC(=O)[C@H](C(C)C)NC(=O)[C@H](Cc2c[nH]c3ccccc23)NC(=O)[C@H](CC(=O)O)NC(=O)[C@H](Cc2ccc(O)cc2)NC(=O)[C@H](Cc2ccccc2)NC(=O)CSC[C@@H](C(=O)NCC(N)=O)NC(=O)[C@H](CO)NC(=O)[C@H](C(C)C)NC1=O` (stereo partly drawn) [Example 1282] ({CH2CO}-FYDWV[Bip]R[NMeA][ξP]RLVSCG-NH2; thioether N-14), the IC50 came out at 290 nM.

In the case of `COc1cccc(C[C@@H]2NC(=O)[C@H](CC(=O)O)NC(=O)[C@H](Cc3ccc(O)cc3)NC(=O)[C@H](Cc3ccccc3)NC(=O)CSC[C@@H](C(=O)N[C@@H](C)C(N)=O)NC(=O)[C@H](CO)NC(=O)[C@H](C(C)C)NC(=O)[C@H](CC(C)C)NC(=O)[C@H](CC(N)=O)NC(=O)CN(C)C(=O)[C@H](C)N(C)C(=O)[C@H](C(C)C)NC(=O)[C@H](Cc3ccc(-c4ccccc4)cc3)NC(=O)[C@H](CC(C)C)NC2=O)c1` [Example 1106] ({CH2CO}-FYD[Phe(3-OMe)]L[Bip]V[NMeA][Sar]NLVSCA-NH2; thioether N-14), the concentration for half-maximal inhibition (IC50) came to 330 nM.

As to `CC(C)C[C@@H]1NC(=O)[C@H](Cc2c[nH]c3ccccc23)NC(=O)[C@H](CC(=O)O)NC(=O)[C@H](Cc2ccc(OCC(=O)O)cc2)NC(=O)[C@H](CC(N)=O)NC(=O)CSC[C@@H](C(=O)N[C@@H](C)C(N)=O)NC(=O)[C@H](CO)NC(=O)[C@H](C(C)C)NC(=O)[C@H](CC(C)C)NC(=O)[C@H](CC(N)=O)NC(=O)[C@H]2CCCN2C(=O)[C@H](C)N(C)C(=O)[C@H](C(C)C)NC(=O)[C@H](Cc2ccc(-c3ccccc3)cc2)NC1=O` [Example 1042] ({CH2CO}-NY(Carboxymethyl)DWL[Bip]V[NMeA][dP]NLVSCA-NH2; thioether N-14), the IC50 is 70 nM.

In the case of `CC(C)C[C@@H]1NC(=O)[C@H](CCCNC(=N)N)NC(=O)[C@H](Cc2ccccc2)N(C)C(=O)[C@H](C)N(C)C(=O)[C@H](CCCNC(=N)N)NC(=O)[C@H](Cc2ccc(-c3ccccc3)cc2)NC(=O)[C@H](C(C)C)NC(=O)[C@H](Cc2c[nH]c3ccccc23)NC(=O)[C@H](CC(=O)O)NC(=O)[C@H](Cc2ccncc2)NC(=O)[C@H](CC(N)=O)NC(=O)CSC[C@@H](C(=O)N[C@@H](C)C(N)=O)NC(=O)[C@H]([C@@H](C)O)NC(=O)[C@H](C(C)C)NC1=O` [Example 1349] ({CH2CO}-N[4Pal]DWV[Bip]R[NMeA][NMeF]RLVTCA-NH2; thioether N-14), the concentration for half-maximal inhibition (IC50) came out at 330 nM.

Regarding `CC(C)C[C@@H]1NC(=O)[C@H](CC(N)=O)NC(=O)[C@H]2CCCN2C(=O)[C@H](C)N(C)C(=O)[C@H](C(C)C)NC(=O)[C@H](Cc2ccc(-c3ccccc3)cc2)NC(=O)[C@@H](CC(C)C)NC(=O)[C@H](Cc2c[nH]c3ccccc23)NC(=O)[C@H](CC(=O)O)NC(=O)[C@H](Cc2ccc(C(=O)O)cc2)NC(=O)[C@H](Cc2ccncc2)NC(=O)CSC[C@@H](C(=O)N[C@@H](C)C(N)=O)NC(=O)[C@@H](CO)NC(=O)[C@H](C(C)C)NC1=O` [Example 1389] ({CH2CO}-[4Pal][Phe(4-COOH)]DW[dL][Bip]V[NMeA][dP]NLV[dS]CA-NH2; thioether N-14), the IC50 amounted to 50 nM.

For `CC(C)C[C@@H]1NC(=O)[C@H](Cc2c[nH]c3ccccc23)NC(=O)[C@H](CC(=O)O)NC(=O)[C@H](Cc2ccc(O)cc2)NC(=O)[C@H](Cc2ccccc2)NC(=O)CSC[C@@H](C(=O)NCC(N)=O)NC(=O)[C@H](CO)NC(=O)[C@H](C(C)C)NC(=O)[C@H](CC(C)C)NC(=O)[C@H](CCC(=O)O)NC(=O)CN(C)C(=O)[C@H](C)N(C)C(=O)[C@H](C(C)C)NC(=O)[C@H](Cc2ccc(-c3ccccc3)cc2)NC1=O` [Example 1071] ({CH2CO}-FYDWL[Bip]V[NMeA][Sar]ELVSCG-NH2; thioether N-14), the IC50 worked out at 190 nM.

For the compound `CC(C)C[C@@H]1NC(=O)[C@H](CCCNC(=N)N)NC(=O)[C@H](Cc2ccccc2)N(C)C(=O)[C@H](C)N(C)C(=O)[C@H](CCCNC(=N)N)NC(=O)[C@H](Cc2ccc(-c3ccccc3)cc2)NC(=O)[C@H](C(C)C)NC(=O)[C@H](Cc2c[nH]c3ccccc23)NC(=O)[C@H](CC(=O)O)NC(=O)[C@H](Cc2ccc(O)cc2)NC(=O)[C@H](CN)NC(=O)CSC[C@@H](C(=O)NCC(N)=O)NC(=O)[C@H](CO)NC(=O)[C@H](C(C)C)NC1=O` [Example 1264] ({CH2CO}-[Dap]YDWV[Bip]R[NMeA][NMeF]RLVSCG-NH2; thioether N-14), the half-maximal inhibitory concentration (IC50) came out at 160 nM.

In the case of `CC[C@H](C)[C@@H]1NC(=O)[C@H](Cc2ccc(-c3ccccc3)cc2)NC(=O)[C@H](CC(C)C)NC(=O)[C@H](Cc2c[nH]c3ccccc23)NC(=O)[C@H](CC(=O)O)NC(=O)[C@H](Cc2ccc(O)cc2)NC(=O)[C@H](Cc2ccccc2)NC(=O)CSC[C@@H](C(=O)NCC(N)=O)NC(=O)[C@H](CO)NC(=O)[C@H](C(C)C)NC(=O)[C@H](CC(C)C)NC(=O)[C@H](CC(N)=O)NC(=O)CN(C)C(=O)[C@H](C)N(C)C1=O` [Example 1133] ({CH2CO}-FYDWL[Bip]I[NMeA][Sar]NLVSCG-NH2; thioether N-14), the half-inhibitory concentration (IC50) came out at 540 nM.

Regarding `CC(C)C[C@@H]1NC(=O)[C@H](CCCNC(=N)N)NC(=O)[C@H](Cc2ccc(O)cc2)N(C)C(=O)[C@H](C)N(C)C(=O)[C@H](CCCNC(=N)N)NC(=O)[C@H](Cc2ccc(-c3ccccc3)cc2)NC(=O)[C@H](C(C)C)NC(=O)[C@H](Cc2c[nH]c3ccccc23)NC(=O)[C@H](CC(=O)O)NC(=O)[C@H](Cc2ccc(O)cc2)NC(=O)[C@H](Cc2ccccc2)NC(=O)CSC[C@@H](C(=O)NCC(N)=O)NC(=O)[C@H](CO)NC(=O)[C@H](C(C)C)NC1=O` [Example 1280] ({CH2CO}-FYDWV[Bip]R[NMeA][NMeY]RLVSCG-NH2; thioether N-14), the IC50 stood at 500 nM.
